As usually defined, the pKi is −log10 of the Ki, conventionally taken in molar units. Low readings indicate a high Ki, high ones a low Ki.

Drawing on US9260425B2 (Genetech, Inc., priority 2011, dated 2016), this text covers Ki for 38 molecules.

The test concerns the target Pim-1 (Homo sapiens (Human), UniProt P11309). Kind of test: Pim kinase binding activity assay (Example 901), PIM-1 enzyme, Caliper microfluidic peptide phosphorylation. It is filed as biochemical. To be noted: 20 pM PIM-1, 10 μM ATP, 1 μM FAM-peptide, 90 minutes at room temperature. The procedure, abridged:
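The readout was microfluidic mobility-shift separation of a FAM-tagged Pim-specific peptide, excited at 488 nm and read at 530 nm, with Ki calculated from percent conversion. Reactions held 20 pM PIM-1, 1 μM peptide and 10 μM ATP in pH 7.2 HEPES/MgCl2/DTT buffer, ran 90 min at room temperature and were stopped with EDTA.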

The structures appear in SMILES notation. pKi: −log10 of the molar value.

Chain of Pim-1 (P11309 whole entry): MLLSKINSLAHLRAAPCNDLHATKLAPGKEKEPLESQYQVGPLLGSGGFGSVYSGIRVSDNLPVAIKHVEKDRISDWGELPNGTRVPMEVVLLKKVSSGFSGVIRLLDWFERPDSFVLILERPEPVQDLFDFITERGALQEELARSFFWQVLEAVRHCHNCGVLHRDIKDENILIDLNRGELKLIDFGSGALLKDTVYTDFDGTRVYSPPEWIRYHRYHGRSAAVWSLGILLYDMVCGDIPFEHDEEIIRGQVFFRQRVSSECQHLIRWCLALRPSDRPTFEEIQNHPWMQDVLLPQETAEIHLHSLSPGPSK

`Cn1cc(-c2cc3c(-c4cccc(C5CCNCC5)n4)n[nH]c3cn2)cn1` [Example 247, 5-(1-methyl-1H-pyrazol-4-yl)-3-(6-(piperidin-4-yl)pyridin-2-yl)-1H-pyrazolo[3,4-c]pyridine]: the pKi was 9.65.
Take `Cn1cc(-c2cc3c(-c4cnn(CC(C)(C)O)c4)n[nH]c3cn2)cn1` [Example 250, 2-methyl-1-(4-(5-(1-methyl-1H-pyrazol-4-yl)-1H-pyrazolo[3,4-c]pyridin-3-yl)-1H-pyrazol-1-yl)propan-2-ol]: the pKi is 9.41.
As for `Cn1cc(-c2cc3c(-c4cccc(N[C@H]5CC[C@@H](N)CC5)n4)n[nH]c3cn2)cn1` [Example 251, (1s,4s)-N1-(6-(5-(1-methyl-1H-pyrazol-4-yl)-1H-pyrazolo[3,4-c]pyridin-3-yl)pyridin-2-yl)cyclohexane-1,4-diamine], the figure is 10.40; as for `c1cncc(-c2cc3c(N4CCCC4)n[nH]c3cn2)c1` [Example 252, 5-(pyridin-3-yl)-3-(pyrrolidin-1-yl)-1H-pyrazolo[3,4-c]pyridine], 8.00; as for `NC(=O)Cc1cc2c(-c3cccc(N4CCNCC4)n3)n[nH]c2cn1` [Example 253, 2-(3-(6-(piperazin-1-yl)pyridin-2-yl)-1H-pyrazolo[3,4-c]pyridin-5-yl)acetamide], 6.77.
On to `CN1CCN(c2n[nH]c3cnc(-c4cccnc4)cc23)C1=O` [Example 254, 1-methyl-3-(5-(pyridin-3-yl)-1H-pyrazolo[3,4-c]pyridin-3-yl)imidazolidin-2-one], for which the pKi is 7.73.
In turn, `CN1CCN(c2nc(-c3n[nH]c4cnc(-c5cccnc5)cc34)ccc2Cl)CC1` [Example 255, 3-(5-chloro-6-(4-methylpiperazin-1-yl)pyridin-2-yl)-5-(pyridin-3-yl)-1H-pyrazolo[3,4-c]pyridine] had a pKi of 9.95.
The same measure for `c1ccc(-c2cc3c(-c4ccccn4)n[nH]c3cn2)nc1` [Example 256, 3,5-di(pyridin-2-yl)-1H-pyrazolo[3,4-c]pyridine]: 5.82.
As to `Cc1ccc(-c2n[nH]c3cnc(-c4cccnc4)cc23)nc1N1CCN(C)CC1` [Example 257, 3-(5-methyl-6-(4-methylpiperazin-1-yl)pyridin-2-yl)-5-(pyridin-3-yl)-1H-pyrazolo[3,4-c]pyridine], the negative-log Ki (pKi) was 10.49.
`O=C1CCCN1c1n[nH]c2cnc(-c3cccnc3)cc12` [Example 258, 1-(5-(pyridin-3-yl)-1H-pyrazolo[3,4-c]pyridin-3-yl)pyrrolidin-2-one]: the pKi is 7.09.
The same measure for `CN1CC(c2cc3c(-c4ccccc4)n[nH]c3cn2)=CC1=O` [Example 259, 1-methyl-4-(3-phenyl-1H-pyrazolo[3,4-c]pyridin-5-yl)-1H-pyrrol-2(5H)-one]: 6.04.
`O=C1CCCCN1c1n[nH]c2cnc(-c3cccnc3)cc12` [Example 260, 1-(5-(pyridin-3-yl)-1H-pyrazolo[3,4-c]pyridin-3-yl)piperidin-2-one]: the negative logarithm of the Ki (pKi) is 5.96.
As for `CN1CC(c2cc3c(-c4ccccc4)n[nH]c3cn2)CC1=O` (centres unmarked) [Example 263, 1-methyl-4-(3-phenyl-1H-pyrazolo[3,4-c]pyridin-5-yl)pyrrolidin-2-one], the figure is 6.62; as for `Cn1cc(-c2cc3c(-c4cccc(O[C@@H]5CCCNC5)n4)n[nH]c3cn2)cn1` [Example 264, (R)-5-(1-methyl-1H-pyrazol-4-yl)-3-(6-(piperidin-3-yloxy)pyridin-2-yl)-1H-pyrazolo[3,4-c]pyridine], 9.57.
The same measure for `N[C@H]1CCCN(c2nc(-c3n[nH]c4cnc(-c5cccnc5)cc34)ccc2Cl)C1` [Example 265, (S)-1-(3-chloro-6-(5-(pyridin-3-yl)-1H-pyrazolo[3,4-c]pyridin-3-yl)pyridin-2-yl)piperidin-3-amine]: 10.72.
As for `N[C@@H]1CCCN(c2nc(-c3n[nH]c4cnc(-c5cccnc5)cc34)ccc2Cl)C1` [Example 266, (R)-1-(3-chloro-6-(5-(pyridin-3-yl)-1H-pyrazolo[3,4-c]pyridin-3-yl)pyridin-2-yl)piperidin-3-amine], the figure is 10.22; as for `N[C@H]1CCN(c2cccc(-c3n[nH]c4cnc(-c5cccnc5)cc34)n2)C1` [Example 268, (S)-1-(6-(5-(pyridin-3-yl)-1H-pyrazolo[3,4-c]pyridin-3-yl)pyridin-2-yl)pyrrolidin-3-amine], 10.57.
Molecule `O[C@@H]1CCCN(c2cccc(-c3n[nH]c4cnc(-c5cccnc5)cc34)n2)C1` [Example 271, (R)-1-(6-(5-(pyridin-3-yl)-1H-pyrazolo[3,4-c]pyridin-3-yl)pyridin-2-yl)piperidin-3-ol] showed a negative-log Ki (pKi) of 10.14.
The same measure for `OC1CCN(c2cccc(-c3n[nH]c4cnc(-c5cccnc5)cc34)n2)CC1` [Example 272, 1-(6-(5-(pyridin-3-yl)-1H-pyrazolo[3,4-c]pyridin-3-yl)pyridin-2-yl)piperidin-4-ol]: 9.83; for `c1cncc(-c2cc3c(-c4cccc(N5CCC(C6CCNCC6)CC5)n4)n[nH]c3cn2)c1` [Example 273, 3-(6-(4,4′-bipiperidin-1-yl)pyridin-2-yl)-5-(pyridin-3-yl)-1H-pyrazolo[3,4-c]pyridine]: 10.15; for `Cc1ccc(-c2n[nH]c3cnc(-c4cccnc4)cc23)nc1F` [Example 274, 3-(6-fluoro-5-methylpyridin-2-yl)-5-(pyridin-3-yl)-1H-pyrazolo[3,4-c]pyridine]: 8.32.
The same measure for `Cc1ccc(-c2n[nH]c3cnc(-c4cccnc4)cc23)nc1` [Example 275, 3-(5-methylpyridin-2-yl)-5-(pyridin-3-yl)-1H-pyrazolo[3,4-c]pyridine]: 8.16; for `N[C@@H]1CCN(c2cccc(-c3n[nH]c4cnc(-c5cccnc5)cc34)n2)C1` [Example 276, (R)-1-(6-(5-(pyridin-3-yl)-1H-pyrazolo[3,4-c]pyridin-3-yl)pyridin-2-yl)pyrrolidin-3-amine]: 9.73.
As for `NCC1CCN(c2cccc(-c3n[nH]c4cnc(-c5cccnc5)cc34)n2)CC1` [Example 278, (1-(6-(5-(pyridin-3-yl)-1H-pyrazolo[3,4-c]pyridin-3-yl)pyridin-2-yl)piperidin-4-yl)methanamine], the figure is 10.00; as for `C1=C(c2n[nH]c3cnc(-c4cccnc4)cc23)CCCO1` [Example 281, 3-(3,4-dihydro-2H-pyran-5-yl)-5-(pyridin-3-yl)-1H-pyrazolo[3,4-c]pyridine], 7.54; as for `OCCN1CCN(c2cccc(-c3n[nH]c4cnc(-c5cccnc5)cc34)n2)CC1` [Example 282, 2-(4-(6-(5-(pyridin-3-yl)-1H-pyrazolo[3,4-c]pyridin-3-yl)pyridin-2-yl)piperazin-1-yl)ethanol], 9.79.
`NCCCCNc1cccc(-c2n[nH]c3cnc(-c4cccnc4)cc23)n1` [Example 283, N1-(6-(5-(pyridin-3-yl)-1H-pyrazolo[3,4-c]pyridin-3-yl)pyridin-2-yl)butane-1,4-diamine] showed a negative-log Ki (pKi) of 9.59.
`C1=C(c2n[nH]c3cnc(-c4cccnc4)cc23)CCO1` [Example 284, 3-(4,5-dihydrofuran-3-yl)-5-(pyridin-3-yl)-1H-pyrazolo[3,4-c]pyridine]: the pKi was 7.97.
Regarding `CCn1cc(-c2cc3c(-c4cccc(N5CCC[C@@H](N)C5)n4)n[nH]c3cn2)cn1` [Example 285, (R)-1-(6-(5-(1-ethyl-1H-pyrazol-4-yl)-1H-pyrazolo[3,4-c]pyridin-3-yl)pyridin-2-yl)piperidin-3-amine], the negative logarithm of the Ki (pKi) is 10.33.
As for `Cn1cc(-c2cc3c(-c4cccc(N5CCC(N)(C(F)(F)F)C5)n4)n[nH]c3cn2)cn1` (centres unmarked) [Example 286, 1-(6-(5-(1-methyl-1H-pyrazol-4-yl)-1H-pyrazolo[3,4-c]pyridin-3-yl)pyridin-2-yl)-3-(trifluoromethyl)pyrrolidin-3-amine], the figure is 10.03; as for `Cc1ccc(-c2n[nH]c3cnc(-c4cccnc4)cc23)nc1N1CCC(O)CC1` [Example 288, 1-(3-methyl-6-(5-(pyridin-3-yl)-1H-pyrazolo[3,4-c]pyridin-3-yl)pyridin-2-yl)piperidin-4-ol], 10.07; as for `N[C@H]1CCCN(c2nc(-c3n[nH]c4cnc(-c5cccnc5)cc34)ccc2Br)C1` [Example 289, (S)-1-(3-bromo-6-(5-(pyridin-3-yl)-1H-pyrazolo[3,4-c]pyridin-3-yl)pyridin-2-yl)piperidin-3-amine], 10.77.
The same measure for `N[C@@H]1CCCN(c2nc(-c3n[nH]c4cnc(-c5cccnc5)cc34)ccc2Br)C1` [Example 290, (R)-1-(3-bromo-6-(5-(pyridin-3-yl)-1H-pyrazolo[3,4-c]pyridin-3-yl)pyridin-2-yl)piperidin-3-amine]: 10.09; for `O[C@@H]1CCCN(c2nc(-c3n[nH]c4cnc(-c5cccnc5)cc34)ccc2Br)C1` [Example 291, (R)-1-(3-bromo-6-(5-(pyridin-3-yl)-1H-pyrazolo[3,4-c]pyridin-3-yl)pyridin-2-yl)piperidin-3-ol]: 9.58; for `OC1CCN(c2nc(-c3n[nH]c4cnc(-c5cccnc5)cc34)ccc2Br)CC1` [Example 292, 1-(3-bromo-6-(5-(pyridin-3-yl)-1H-pyrazolo[3,4-c]pyridin-3-yl)pyridin-2-yl)piperidin-4-ol]: 9.74.
For `O[C@@H]1CCN(c2nc(-c3n[nH]c4cnc(-c5cccnc5)cc34)ccc2Br)C1` [Example 293, (R)-1-(3-bromo-6-(5-(pyridin-3-yl)-1H-pyrazolo[3,4-c]pyridin-3-yl)pyridin-2-yl)pyrrolidin-3-ol], the negative-log Ki (pKi) was 9.39.
The same measure for `Cn1cc(-c2cc3c(-c4cccc(N5CCC(O)CC5)n4)n[nH]c3cn2)cn1` [Example 294, 1-(6-(5-(1-methyl-1H-pyrazol-4-yl)-1H-pyrazolo[3,4-c]pyridin-3-yl)pyridin-2-yl)piperidin-4-ol]: 9.77; for `O=C1N(c2n[nH]c3cnc(-c4cccnc4)cc23)CCC12CCNCC2` [Example 295, 2-(5-(pyridin-3-yl)-1H-pyrazolo[3,4-c]pyridin-3-yl)-2,8-diazaspiro[4.5]decan-1-one]: 7.40.
